pIC50: −log10 of the molar value. Read-outs that look alike come from different tables or passages of the source.
Legend:
MCF7 = experiment: MTT cell proliferation test, cytotoxicity on MCF7 breast cancer cells; type: cell-based, human; details: MCF7, 72 hrs incubation, read-out: IC50 μmole/L, after 72 hrs incubation time
Protocol: (§1) IC50 Determination Using the Photometric Assay.
(§2) All cell lines, MCF7, HT29, HL60, A549 and CRL1790 were purchased from ATCC (American Cell Culture Collection). As exemplified the MCF-7 human breast cancer, the cell line was grown in Iscove's Modified Dulbecco's Medium, supplemented with 10% heat-inactivated fetal bovine serum, penicillin (100 Ul/mL), streptomycin (100 μg/mL), amphotericin (250 ng/mL), L-glutamine (2 mM) and 1% non-essential amino acids solution. The culture of HL-60 human leukemia cells was conducted in Iscove's Modified Dulbecco's Medium, supplemented with 20% heat-inactivated fetal bovine serum, penicillin (100 Ul/mL), streptomycin (100 μg/mL), amphotericin (250 ng/mL), L-glutamine (2 mM) and 1% non-essential amino acids solution.
(§3) The cells were grown at 37° C. in a humidified atmosphere containing 5% CO2. After 80% confluence was reached, the adherent MCF7, HL-60, cells were detached with a 0.25% trypsin solution and seeded in 96-well plates at a density of 5×10^4 cells/mL, 5×10^5 cells/mL, respectively.
(§4) After overnight incubation, the increasing concentrations (0.1-20 μM) of studied compounds dissolved in DMSO were added to the wells. Pure DMSO diluted at the ratio of 1:1000 (v/v) in growth media was added to control wells. After 24, 48 or 72 hours of incubation the MTT-cell proliferation test was performed.
(§5) The test exploits the ability of living cells mitochondrial dehydrogenases to convert water-soluble 3-(4,5-dimethylthiazol-2-yl)-2,5-diphenyltetrazolium bromide (MTT) to non-soluble formazan. Briefly, after 3 hours incubation of cells with MTT solution the absorbance of formazan dissolved in isopropyl alcohol was measured in a Power Wavex microplate spectrophotometer (BioTek Instruments) at 570 nm.
(§6) In order to compare the cytotoxicity of studied compounds the IC50 values (the concentrations which induce the cell viability decreased to 50% of the control) were determined. The normalized MTT data were fitted to log(inhibitor) vs. response-variable slope model (R^2>0.9) described by the Equation 1 using Prism 5 ver 5.03 (GraphPad Software, Inc):
(§7) [formula] where: V—cell viability, c—compound concentration, h—Hill coefficient.
(§8) As a result log IC50 with the standard error were calculated.

HL60 = experiment: MTT cell proliferation test, cytotoxicity on HL60 leukemia cells; type: cell-based, human
Protocol: as §1, §2, §3, §4, §5, §6, §7, §8

A549 = experiment: MTT cell proliferation test, cytotoxicity on A549 lung cancer cells; type: cell-based; details: A549, 72 hrs incubation, read-out: IC50 μmole/L, after 72 hrs incubation time
Protocol: as §1, §2, §3, §4, §5, §6, §7, §8

HT29 = experiment: MTT cell proliferation test, cytotoxicity on HT29 colon cancer cells; type: cell-based; details: HT29, 72 hrs incubation, read-out: IC50 μmole/L, after 72 hrs incubation time
Protocol: as §1, §2, §3, §4, §5, §6, §7, §8

CRL1790 = experiment: MTT cell proliferation test, cytotoxicity on CRL1790 normal cells; type: cell-based; details: CRL1790, 72 hrs incubation, read-out: IC50 μmole/L, after 72 hrs incubation time
Protocol: as §1, §2, §3
[…] Pure DMSO diluted at the ratio of 1:1000 (v/v) in growth media was added to control wells. After 24, 48 or 72 hours of incubation the MTT-cell proliferation test was performed.
as §5
as §6, with “Inc): […]” for “Inc):”
as §8

[1] = Blood, HL60, 72 hrs incubation, MTT, read-out: IC50 μmole/L, after 72 hrs incubation time

SMILES	pIC50 (MCF7)	pIC50 (HL60; [1])	pIC50 (A549)	pIC50 (HT29)	pIC50 (CRL1790)	pIC50 (HL60; no unit or cell line printed, values match the HL60 line of Table 1, read-out: IC50)
CCc1c2c(nc3ccc(O)cc13)-c1cc3c(c(=O)n1[C@@H]2CN1CCCC1)COC(=O)C3(O)CC (stereo partly drawn) [Compound 2, 5-(S)—(N-pyrrolidinyl)methyl-7-ethyl-10-hydroxycamptothecin]	6.02	8.15	6.57	6.31		
CCc1c2c(nc3ccc(O)c(CN4CCC4)c13)-c1cc3c(c(=O)n1[C@@H]2CO)COC(=O)[C@]3(O)CC [Compound 7, 5-(S)-hydroxymethyl-7-ethyl-9-(N-azetidinyl)methyl-10-hydroxycamptothecin]	5.17	6.96	5.93	5.60	< 3.00	
CCc1c2c(nc3ccc(O)c(CN4CCC4)c13)-c1cc3c(c(=O)n1[C@H]2CO)COC(=O)C3(O)CC (stereo partly drawn) [Compound 6, 5-(R)-hydroxymethyl-7-ethyl-9-(N-azetidinyl)methyl-10-hydroxycamptothecin]	4.95	6.48	5.28	5.16	< 3.00	
CCc1c2c(nc3ccc(O)cc13)-c1cc3c(c(=O)n1[C@H]2CO)COC(=O)C3(O)CC (stereo partly drawn) [Compound 3, 5-(R)-hydroxymethyl-7-ethyl-10-hydroxycamptothecin]	4.80	6.14	5.37	5.02		
CCc1c2c(nc3ccc(O)cc13)-c1cc3c(c(=O)n1[C@H]2CN1CCCC1)COC(=O)[C@]3(O)CC [Compound 1, 5-(R)—(N-pyrrolidinyl)methyl-7-ethyl-10-hydroxycamptothecin]	6.09	7.96	6.69	6.22		
CCc1c2c(nc3ccc(O)c(CN4CCCC4)c13)-c1cc3c(c(=O)n1C2)COC(=O)C3(O)CC (centres unmarked) [CC2, (N-pyrrolidinyl)methyl-7-ethyl-10-hydroxycamptothecin, reference compound]	5.84		7.08	6.62		7.85
CCc1c2c(nc3ccc(O)cc13)-c1cc3c(c(=O)n1[C@@H]2CO)COC(=O)[C@]3(O)CC [Compound 4, 5-(S)-hydroxymethyl-7-ethyl-10-hydroxycamptothecin]	4.83	5.72	5.18	4.83		
CCc1c2c(nc3ccc(O)c(CN4CCC4)c13)-c1cc3c(c(=O)n1C2)COC(=O)C3(O)CC (centres unmarked) [CC1, (N-azetidinyl)methyl-7-ethyl-10-hydroxycamptothecin, reference compound]	6.00	7.92	7.15	7.15		
C=c1c2c(CC)c3cc(O)ccc3nc2c2cc3c(c(=O)n12)COC(=O)C3(O)CC (centres unmarked) [Compound 5, 5-methylidene-7-ethyl-10-hydroxycamptothecin]			5.71	6.82		
CCc1c2c(nc3ccc(O)cc13)-c1cc3c(c(=O)n1C2)COC(=O)[C@]3(O)CC [SN38, 7-ethyl-10-hydroxycamptothecin]	6.18	8.70	7.55	7.70	5.30	

— patent publication US12091417B2, “7-ethyl-10-hydroxycamptothecin derivatives for use in the treatment of cancer” (Narodowy Instytut Lekow, priority 2020, dated 2024)
